Reference: patent publication US12065404B2, “C4-carboxylic acid-substituted tryptamine derivatives and methods of using” (priority 2022, dated 2024)
“And” between values parts separate entries of the source, which are not always exact repeats. Equal values may be shown once.

Assays:
[1] = Mouse pharmacokinetic (PK) study, parent compound and psilocin metabolite in plasma; assay type: in vivo, C57Bl/6 mice; settings: for bioavailability: male, C57Bl/6, mouse, plasma, po
Source text: Briefly, the procedure was as follows. […] 19, 2022.

GABAA = GABAA (Homo sapiens, UniProt P14867+P18507+P47870); assay type: cell-based; settings: ion channel
Sequence of GABAA (P14867 28-456): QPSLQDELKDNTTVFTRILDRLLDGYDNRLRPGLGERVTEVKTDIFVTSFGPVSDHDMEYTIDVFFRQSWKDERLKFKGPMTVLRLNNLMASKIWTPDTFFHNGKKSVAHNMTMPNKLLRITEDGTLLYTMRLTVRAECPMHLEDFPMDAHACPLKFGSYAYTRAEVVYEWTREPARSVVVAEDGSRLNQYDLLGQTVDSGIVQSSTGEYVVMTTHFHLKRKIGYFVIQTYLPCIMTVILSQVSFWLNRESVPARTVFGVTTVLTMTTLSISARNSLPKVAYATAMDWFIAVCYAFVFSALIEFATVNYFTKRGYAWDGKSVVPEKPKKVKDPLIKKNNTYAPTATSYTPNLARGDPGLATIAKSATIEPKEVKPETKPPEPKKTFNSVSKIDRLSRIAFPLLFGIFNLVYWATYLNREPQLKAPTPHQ
Sequence of GABAA (P47870 26-512): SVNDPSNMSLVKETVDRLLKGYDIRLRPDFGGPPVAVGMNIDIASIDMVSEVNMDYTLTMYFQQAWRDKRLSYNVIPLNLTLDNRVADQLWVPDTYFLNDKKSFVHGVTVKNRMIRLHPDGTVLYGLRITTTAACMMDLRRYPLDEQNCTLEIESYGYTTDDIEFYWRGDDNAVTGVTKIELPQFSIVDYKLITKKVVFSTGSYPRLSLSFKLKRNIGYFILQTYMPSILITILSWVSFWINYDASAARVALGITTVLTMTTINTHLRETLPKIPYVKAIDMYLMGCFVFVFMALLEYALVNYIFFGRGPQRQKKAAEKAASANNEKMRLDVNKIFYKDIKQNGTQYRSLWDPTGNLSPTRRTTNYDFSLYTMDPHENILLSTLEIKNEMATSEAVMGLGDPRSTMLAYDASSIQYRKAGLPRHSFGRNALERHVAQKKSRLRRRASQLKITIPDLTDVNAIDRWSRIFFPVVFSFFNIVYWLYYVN
Sequence of GABAA (P18507 40-475): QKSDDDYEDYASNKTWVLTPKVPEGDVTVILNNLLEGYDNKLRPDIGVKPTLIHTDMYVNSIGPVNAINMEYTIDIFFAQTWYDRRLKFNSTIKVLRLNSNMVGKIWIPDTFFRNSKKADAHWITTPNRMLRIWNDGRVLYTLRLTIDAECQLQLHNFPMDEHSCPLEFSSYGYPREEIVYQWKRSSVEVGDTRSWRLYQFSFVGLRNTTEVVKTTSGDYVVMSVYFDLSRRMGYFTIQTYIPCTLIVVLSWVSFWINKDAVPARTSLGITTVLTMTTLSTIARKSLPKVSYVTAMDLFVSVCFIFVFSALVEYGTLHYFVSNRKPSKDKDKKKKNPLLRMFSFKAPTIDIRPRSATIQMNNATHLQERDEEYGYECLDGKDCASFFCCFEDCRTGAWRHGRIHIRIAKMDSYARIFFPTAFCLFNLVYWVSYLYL

[2] = administered compound itself in plasma, 1 mg/kg i.v., individual animals, 1 mg/kg
[3] = administered compound itself in plasma, 1 mg/kg i.v., mean ± SD
[4] = administered compound itself in plasma, 1 mg/kg oral, individual animals, 1 mg/kg
[5] = administered compound itself in plasma, 1 mg/kg oral, mean ± SD, 1 mg/kg
[6] = administered compound itself in plasma, 3 mg/kg oral, individual animals, 3 mg/kg
[7] = administered compound itself in plasma, 3 mg/kg oral, mean ± SD
[8] = administered compound itself in plasma, 3 mg/kg oral, mean ± SD, 3 mg/kg
[9] = administered compound itself in plasma, 10 mg/kg oral, individual animals, 10 mg/kg
[10] = administered compound itself in plasma, 10 mg/kg oral, mean ± SD

## CN(C)CCc1c[nH]c2cccc(OC(=O)c3ccc(Br)cc3)c12 [C(I)]
[1]; 10 mg/kg oral, AUC0-tlast used for p.o. group, i.v. animal M37 considered an outlier, mean ± SD
  F(%), M37 considered as an outlier: 3.22 ± 0.731%
[1]; 10 mg/kg oral, AUC0-tlast used for p.o. group, individual animals
  F(%): 0.447% and 0.627%
[1]; [2]
  AUC0-inf: 1014 ng·h/mL and 64.4 ng·h/mL and 51.9 ng·h/mL
  AUC0-inf/Dose: 1014 kg·ng·h/mL/mg and 64.4 kg·ng·h/mL/mg and 51.9 kg·ng·h/mL/mg
  AUC0-tlast: 1006 ng·h/mL and 63.7 ng·h/mL and 51.4 ng·h/mL
  AUC0-tlast/Dose: 1006 kg·ng·h/mL/mg and 63.7 kg·ng·h/mL/mg and 51.4 kg·ng·h/mL/mg
  Apparent t1/2: 1.21 h and 0.643 h
  C0: 3792 ng/mL and 168 ng/mL and 132 ng/mL
  CL: 16.4 mL/min/kg and 258.9 mL/min/kg and 321.08 mL/min/kg
  MRT0-inf: 46.8 min and 39.4 min
  Vss: 560 mL/kg and 12109 mL/kg and 12650 mL/kg
[1]; [3]
  AUC0-inf/Dose: 377 ± 552 kg·ng·h/mL/mg
  AUC0-tlast/Dose: 374 ± 548 kg·ng·h/mL/mg
  MRT0-inf: 40.1 ± 6.36 min
[1]; administered compound itself in plasma, 1 mg/kg i.v., mean, n = 2 (apparently without possible outlier M37)
  AUC0-tlast/Dose: 57.6 kg·ng·h/mL/mg
[1]; [4]
  AUC0-tlast: 2.09 ng·h/mL and 0.169 ng·h/mL and 1.75 ng·h/mL
  AUC0-tlast/Dose: 2.09 kg·ng·h/mL/mg and 0.169 kg·ng·h/mL/mg and 1.75 kg·ng·h/mL/mg
  Cmax: 0.816 ng/mL and 0.54 ng/mL and 1.28 ng/mL
  Cmax/Dose: 0.816 kg·ng/mL/mg and 0.54 kg·ng/mL/mg and 1.28 kg·ng/mL/mg
[1]; [5]
  AUC0-tlast/Dose: 1.34 ± 1.02 kg·ng·h/mL/mg and 1.34 kg·ng·h/mL/mg
  Cmax/Dose: 0.877 ± 0.376 kg·ng/mL/mg and 0.877 kg·ng/mL/mg
[1]; [6]
  AUC0-tlast: 5.47 ng·h/mL and 5.91 ng·h/mL
  AUC0-tlast/Dose: 1.75 kg·ng·h/mL/mg and 1.82 kg·ng·h/mL/mg and 1.97 kg·ng·h/mL/mg
  Cmax: 2.16 ng/mL and 2.34 ng/mL
  Cmax/Dose: 0.650 kg·ng/mL/mg and 0.720 kg·ng/mL/mg and 0.780 kg·ng/mL/mg
  tmax: 15 min
[1]; [7]
  AUC0-tlast: 5.54 ± 0.330 ng·h/mL
  Cmax: 2.15 ± 0.195 ng/mL
[1]; [8]
  AUC0-tlast/Dose: 1.85 ± 0.110 kg·ng·h/mL/mg and 1.85 kg·ng·h/mL/mg
  Cmax/Dose: 0.717 ± 0.0651 kg·ng/mL/mg and 0.717 kg·ng/mL/mg
[1]; [9]
  AUC0-inf: 24.1 ng·h/mL
  AUC0-tlast: 16.8 ng·h/mL and 23.6 ng·h/mL
  AUC0-tlast/Dose: 1.58 kg·ng·h/mL/mg and 1.68 kg·ng·h/mL/mg and 2.36 kg·ng·h/mL/mg
  Apparent t1/2: 1.17 h
  Cmax: 7.10 ng/mL and 10.9 ng/mL
  Cmax/Dose: 0.720 kg·ng/mL/mg and 0.710 kg·ng/mL/mg and 1.09 kg·ng/mL/mg
  MRT0-inf: 144 min
  tmax: 30 min
[1]; [10]
  AUC0-tlast/Dose: 1.87 ± 0.425 kg·ng·h/mL/mg
  Cmax/Dose: 0.840 ± 0.217 kg·ng/mL/mg
[1]; 1 mg/kg, 1 mg/kg oral, AUC0-tlast used for p.o. group, value might be under-estimated, mean ± SD
  bioavailability: 0.355 ± 0.272%
[1]; 3 mg/kg, 3 mg/kg oral, AUC0-tlast used for p.o. group, value might be under-estimated, individual animals
  bioavailability: 0.466%
[1]; 3 mg/kg, 3 mg/kg oral, AUC0-tlast used for p.o. group, value might be under-estimated, mean ± SD
  bioavailability: 0.491 ± 0.0292%
[1]; 10 mg/kg, 10 mg/kg oral, AUC0-tlast used for p.o. group, individual animals
  bioavailability: 0.419%
[1]; 10 mg/kg, 10 mg/kg oral, AUC0-tlast used for p.o. group, mean ± SD
  bioavailability: 0.498 ± 0.113%
GABAA; blocker (BL)
  IC50: > 100 µM
GABAA; opener (OP)
  EC50: > 100 µM
